Read-outs that look alike come from different tables or passages of the source. A value given as a limit tells only on which side of the number the result lay.

Assay [1] addresses T1, D1R; D1 receptor fused to C-terminal RLuc (BRET assay) (Homo sapiens, UniProt P21728). The assay can be described thus: BRET beta-arrestin2 recruitment, HEK293T. It counts as cell-based. A general note: Bioluminescence resonance energy transfer reports proximity on the nanometre scale.
In assay [2] the target is T1, D1R; D1 receptor fused to C-terminal RLuc (BRET assay). The assay can be described thus: cell-based. On the set-up: species or system HEK293T. The note with it: HEK-293T, read-out: β-arrestin Emax (%), D1R.
Assay [3] concerns the target T2, D2R; D2Long receptor fused to C-terminal RLuc (BRET assay) (Homo sapiens, UniProt P14416). The assay can be described thus: cell-based. Particulars: for Emax: HEK-293T, read-out: β-arrestin Emax (%), D2R. On the set-up: species or system HEK293T.
The target in assay [4] is T2, D2R; D2Long receptor fused to C-terminal RLuc (BRET assay). The assay can be described thus: BRET beta-arrestin2 recruitment, HEK293T. In kind it is cell-based.
Assay [5] concerns the target T1, D1R; D1 receptor fused to C-terminal RLuc (BRET assay). The assay can be described thus: cell-based. Set-up: species or system HEK293T. The note with it: HEK-293T, read-out: β-arrestin Emax (%), D1R. This is another data set of the same source.
Assay [6] concerns the target T2, D2R; D2Long receptor fused to C-terminal RLuc (BRET assay). The assay can be described thus: cell-based. On the set-up: species or system HEK293T. Particulars: HEK-293T, read-out: β-arrestin Emax (%), D2R.
The target in assay [7] is T1, D1R; D1 receptor fused to C-terminal RLuc (BRET assay). The assay can be described thus: cell-based. On the set-up: species or system HEK293T. Particulars: HEK-293T, read-out: β-arrestin Emax (%), D1R. This is another data set of the same source.
In assay [8] the target is T2, D2R; D2Long receptor fused to C-terminal RLuc (BRET assay). The assay can be described thus: cell-based. Set-up: species or system HEK293T. Particulars: HEK-293T, read-out: β-arrestin Emax (%), D2R. The source holds these as a separate data set.
The target is the same in assay [9]. The assay can be described thus: cell-based. Set-up: species or system HEK293T.
Assay [10] deals with T1, D1R; D1 receptor fused to C-terminal RLuc (BRET assay). The assay can be described thus: cell-based. Set-up: species or system HEK293T. The note with it: HEK-293T, read-out: β-arrestin Emax (%), D1R. This is another data set of the same source.
Assay [11] concerns the target T2, D2R; D2Long receptor fused to C-terminal RLuc (BRET assay). The assay can be described thus: cell-based. Set-up: species or system HEK293T. This is another data set of the same source.
Assay [12] has the same target. The assay can be described thus: cell-based. On the set-up: species or system HEK293T. The source holds these as a separate data set.
Assay [13] has the same target. Particulars: agonist.

T2 sequence (P14416 whole entry, the tested form may be a part): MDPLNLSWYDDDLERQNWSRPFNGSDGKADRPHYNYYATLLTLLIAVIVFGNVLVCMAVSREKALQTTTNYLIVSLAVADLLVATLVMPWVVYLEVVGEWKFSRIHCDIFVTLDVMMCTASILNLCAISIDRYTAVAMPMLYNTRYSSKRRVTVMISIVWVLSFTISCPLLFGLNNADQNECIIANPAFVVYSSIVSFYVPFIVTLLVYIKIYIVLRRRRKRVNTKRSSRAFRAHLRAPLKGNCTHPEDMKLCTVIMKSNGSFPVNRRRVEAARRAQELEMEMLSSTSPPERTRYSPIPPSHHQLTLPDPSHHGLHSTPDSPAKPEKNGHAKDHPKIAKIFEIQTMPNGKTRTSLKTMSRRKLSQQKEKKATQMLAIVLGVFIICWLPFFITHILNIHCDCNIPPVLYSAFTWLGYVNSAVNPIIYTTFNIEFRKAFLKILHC
T1 sequence (P21728 whole entry, the tested form may be a part): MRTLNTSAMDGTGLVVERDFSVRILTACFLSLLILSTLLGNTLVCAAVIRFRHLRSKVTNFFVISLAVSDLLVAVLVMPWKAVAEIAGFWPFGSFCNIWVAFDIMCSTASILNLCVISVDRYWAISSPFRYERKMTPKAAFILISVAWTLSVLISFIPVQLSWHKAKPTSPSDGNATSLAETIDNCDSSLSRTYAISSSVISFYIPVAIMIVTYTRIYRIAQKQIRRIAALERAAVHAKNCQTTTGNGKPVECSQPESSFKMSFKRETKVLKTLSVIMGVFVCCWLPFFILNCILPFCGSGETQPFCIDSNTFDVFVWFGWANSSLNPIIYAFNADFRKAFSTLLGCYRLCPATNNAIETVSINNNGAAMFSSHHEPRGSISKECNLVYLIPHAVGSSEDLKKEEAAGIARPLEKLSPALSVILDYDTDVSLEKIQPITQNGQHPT

Consider `COc1cccc(-c2ccc(O)c(O)c2)c1` [Z4642446630], for which a half-maximal effect in [1] (agonist mode, beta-arrestin2 pathway, pH […]) (EC50) was put at 5.48 µM. Also, the Emax in assay [2] was determined as 17.1 ± 5.3%.

With `CN1Cc2sccc2[C@@H]2c3cc(O)c(O)cc3CC[C@H]21` (relative stereo) [1j], the concentration for a half-maximal effect (EC50) in assay [1] is > 10 µM; in [4], 7.48 µM. In addition, the maximum response (Emax) in assay [3] was 73.4 ± 17.8%.

On to `OCCc1ccc(O)c(O)c1` [3a], for which the Emax was 11.5 ± 3.05% in [5] and 9.98 ± 2.96% in [6]. For the same compound, the concentration for a half-maximal effect (EC50) stood at 0.229 µM in assay [1] and 5.26 µM in assay [4].

As for `Cc1cc(-c2cccc(O)c2O)cs1` [2a], the maximum response (Emax) in assay [7] amounted to 30.3 ± 5.6%; in assay [8], 13.9 ± 3.68%. In addition, the concentration for a half-maximal effect (EC50) in [1] was 6.9 µM.

With `NS(=O)(=O)c1ccc(-c2cccc(O)c2O)cc1` [2f], the Emax in [7] turned out to be 4.6 ± 1.5%. Further, the 50% effective concentration (EC50) in assay [1] was 0.0514 µM; in assay [9] it was > 100 µM.

`CCCc1cc2c(s1)CN[C@@H]1CCc3cc(OC(C)=O)c(OC(C)=O)cc3[C@@H]21` [ABT-431]: the EC50 in assay [1] worked out at 3.2 µM; in [4], 3 µM. Moreover, the Emax was 23 ± 2.15% in assay [3] and 88.2 ± 3.06% in assay [10].

For `Oc1cc2c(cc1O)[C@H]1c3cc(Br)sc3CN[C@@H]1CC2` (racemic) [1b], the maximal response (Emax) in assay [3] is 60.3 ± 2.27%; in assay [10], 138 ± 8.41%.

In the case of `N#Cc1ccc(-c2cccc(O)c2O)cc1` [2c], the Emax in assay [8] is 1.61 ± 1.27%. Also, the EC50 in [1] was > 10 µM; in assay [11], 0.0317 µM.

As for `N[C@H]1CCc2cc(O)c(O)cc2[C@@H]1c1cccs1` (racemic) [1m], the values for the Emax in [3] and in [10] were 27 ± 1.8% and 3.7 ± 1.67%, respectively.

As to `Nc1cccc(-c2cccc(O)c2O)c1` [2g], in assay [7], the Emax amounted to 4 ± 1.6%. Moreover, the EC50 in assay [1] was 0.00733 µM; in [9] it was > 100 µM.

With `CCCc1cc2c(s1)CN[C@H]1CCc3cc(O)c(O)cc3[C@H]21` [(+)-A-86929], the EC50 amounted to 2.8 µM in [1] and 2.07 µM in assay [4]. Further, the maximum response (Emax) worked out at 38 ± 4.45% in assay [3] and 94.1 ± 6.55% in [10].

For `Oc1cc2c(cc1O)[C@H]1c3cc(Br)sc3CN[C@@H]1CC2` [1c], the maximum response (Emax) is 70.3 ± 3.41% in assay [3] and 137 ± 9.35% in [10].

`Oc1cc2c(cc1O)[C@H]1c3cc(-c4cccc(C(F)(F)F)c4)sc3CN[C@@H]1CC2` [1h]: the EC50 in assay [1] was > 10 µM; in assay [4], 4.84 µM. In assay [3], the maximal response (Emax) turned out to be 73 ± 4.69%.

For `Oc1cccc(-c2cccnc2)c1O` [2d], the Emax in assay [7] was determined as 2.6 ± 1.8%. Besides, the results for the EC50 in [1] and in [9] were 0.053 µM and > 100 µM, respectively.

As to `Oc1cc2c(cc1O)[C@@H]1c3cc(Br)sc3CN[C@H]1CC2` [1d], the concentration for a half-maximal effect (EC50) came to 2.63 µM in assay [1] and 5.62 µM in assay [4]. Moreover, the maximum response (Emax) came to 50.6 ± 4.02% in assay [3] and 52.8 ± 9.7% in assay [10].

For the compound `N#Cc1cccc(-c2cccc(O)c2O)c1` [2e], the EC50 in assay [1] was > 10 µM; in assay [9], > 100 µM.

Turning to `Oc1cccc(-c2cccc(C(F)(F)F)c2)c1O` [2b], the maximum response (Emax) in assay [7] was 6.13 ± 3.11%. The figures for the 50% effective concentration (EC50) in assay [1] and in assay [11] were 0.0052 µM and > 10 µM, respectively.

As for `Oc1cc2c(cc1O)[C@@H]1c3cc(-c4cccc(C(F)(F)F)c4)sc3CN[C@H]1CC2` [1i], the concentration for a half-maximal effect (EC50) in [1] and in assay [4] was > 10 µM throughout.

In the case of `Oc1cccc(-c2cnc3ccccc3c2)c1O` [2i], the EC50 in assay [1] was > 10 µM; in assay [9], > 100 µM.

`Oc1cc2c(cc1O)[C@H](c1cccs1)[C@@H](NCc1ccccc1)CC2` (racemic) [1l]: in assay [3], the maximal response (Emax) is 8.62 ± 3.15%.

As for `CCCc1cc2c(s1)CN[C@@H]1CCc3cc(O)c(O)cc3[C@@H]21` [(-)-A-86929], the EC50 in [1] was found to be 0.607 µM; in assay [4], 0.27 µM. Further, the figures for the maximal response (Emax) in [3] and in assay [10] were 79.7 ± 3.83% and 95.5 ± 6.88%, respectively.

With `Oc1cccc(-c2cncc3ccccc23)c1O` [2h], the maximal effect (Emax) in assay [7] worked out at 8.1 ± 2.1%. Besides, the half-maximal effective concentration (EC50) is 0.689 µM in [1] and > 100 µM in assay [9].

Turning to `OCCCc1ccc(O)c(O)c1` [3b], the Emax in assay [5] stood at 3.5 ± 1.9%. In addition, the EC50 was 0.534 µM in [1] and > 10 µM in [12].

In the case of `NCCc1ccc(O)c(O)c1` [DA], the “β-arrestin Emax (%), D2R” value in [3] (beta-arrestin2 recruitment, % of dopamine, agonist) is listed as 90.29±3.23%. In addition, the “D2R beta-arrestin Emax (%)” value in assay [13] turned out to be 90.29±3.23%.

The term EC50 denotes the concentration needed to bring the measured effect to its halfway point. A higher EC50 goes with weaker potency. As a reminder, the Emax is the maximal effect, on the per cent scale that the assay sets.

The values are drawn from article doi:10.1101/2021.10.01.462758v2 (biorxiv, 2021).
